The source of these data is BindingDB's records for patent US20250115607 (Hoffmann-La Roche, 2025).

SMILES strings stand for the structures. pIC50: −log10 of the molar value.

Common to all, as to assay: Phosphorylation Assay SIK1-3
Test [1] concerns the target Serine/threonine-protein kinase SIK1 (Homo sapiens, UniProt P57059). As to the method: (§1) In the presence of SIK2 (resp. SIK1 or SIK3) and ATP the CHK-peptide ([…] with C-terminal arginine amide modification) were phosphorylated at one of the four feasible serine's. Only one phosphorylation is observed under the assay conditions. 60 nl of each compound dilution series (12 point; dilution factor 3, generally 30 μM to 170 pM) in DMSO were transferred by acoustic dispensing to the assay plate and 30 minutes pre-incubated (ambient temperature) after the addition of 5 μl SIK1 (5 nM) resp. 5 μl SIK2 (0.5 nM) or 7 μl SIK3 (1.5 nM) in assay-buffer (12.5 mM HEPES (pH 7.0), 10 mM magnesium acetate, 0.005% BSA). 10 μM CHK-peptide solution and 5 μl of 100 μM ATP for SIK1 & SIK2 resp. 3 μl for SIK3 in assay-buffer were added and incubated ambient for 45 minutes. 40 μl of 0.125% formic acid in water were added to quench the reaction. RapidFire (RF) Mass Spectrometry was utilized for data generation as described below. The multiple charged species (3-5 charges) for the phosphorylated and non-phosphorylated form measured by MRM (Multiple Reaction Monitoring; API5000 or 6500+) or EIC (Extracted Ion Current; QToF) were summed up and the ratio calculated (sum phosphorylated species/sum all species) for data evaluation. Normalization was performed by Genedata software based on the non-inhibition control DMSO and the commercially available STK inhibitor @1 μM YKL-05-099 (CAS number 1936529-65-5).

Test [2] has as its target Serine/threonine-protein kinase SIK2 (Homo sapiens, UniProt Q9H0K1). As to the method:
as §1

Test [3] deals with Serine/threonine-protein kinase SIK3 (Homo sapiens, UniProt Q9Y2K2). As to the method: as §1
Chain of Serine/threonine-protein kinase SIK3 (Q9Y2K2 whole entry): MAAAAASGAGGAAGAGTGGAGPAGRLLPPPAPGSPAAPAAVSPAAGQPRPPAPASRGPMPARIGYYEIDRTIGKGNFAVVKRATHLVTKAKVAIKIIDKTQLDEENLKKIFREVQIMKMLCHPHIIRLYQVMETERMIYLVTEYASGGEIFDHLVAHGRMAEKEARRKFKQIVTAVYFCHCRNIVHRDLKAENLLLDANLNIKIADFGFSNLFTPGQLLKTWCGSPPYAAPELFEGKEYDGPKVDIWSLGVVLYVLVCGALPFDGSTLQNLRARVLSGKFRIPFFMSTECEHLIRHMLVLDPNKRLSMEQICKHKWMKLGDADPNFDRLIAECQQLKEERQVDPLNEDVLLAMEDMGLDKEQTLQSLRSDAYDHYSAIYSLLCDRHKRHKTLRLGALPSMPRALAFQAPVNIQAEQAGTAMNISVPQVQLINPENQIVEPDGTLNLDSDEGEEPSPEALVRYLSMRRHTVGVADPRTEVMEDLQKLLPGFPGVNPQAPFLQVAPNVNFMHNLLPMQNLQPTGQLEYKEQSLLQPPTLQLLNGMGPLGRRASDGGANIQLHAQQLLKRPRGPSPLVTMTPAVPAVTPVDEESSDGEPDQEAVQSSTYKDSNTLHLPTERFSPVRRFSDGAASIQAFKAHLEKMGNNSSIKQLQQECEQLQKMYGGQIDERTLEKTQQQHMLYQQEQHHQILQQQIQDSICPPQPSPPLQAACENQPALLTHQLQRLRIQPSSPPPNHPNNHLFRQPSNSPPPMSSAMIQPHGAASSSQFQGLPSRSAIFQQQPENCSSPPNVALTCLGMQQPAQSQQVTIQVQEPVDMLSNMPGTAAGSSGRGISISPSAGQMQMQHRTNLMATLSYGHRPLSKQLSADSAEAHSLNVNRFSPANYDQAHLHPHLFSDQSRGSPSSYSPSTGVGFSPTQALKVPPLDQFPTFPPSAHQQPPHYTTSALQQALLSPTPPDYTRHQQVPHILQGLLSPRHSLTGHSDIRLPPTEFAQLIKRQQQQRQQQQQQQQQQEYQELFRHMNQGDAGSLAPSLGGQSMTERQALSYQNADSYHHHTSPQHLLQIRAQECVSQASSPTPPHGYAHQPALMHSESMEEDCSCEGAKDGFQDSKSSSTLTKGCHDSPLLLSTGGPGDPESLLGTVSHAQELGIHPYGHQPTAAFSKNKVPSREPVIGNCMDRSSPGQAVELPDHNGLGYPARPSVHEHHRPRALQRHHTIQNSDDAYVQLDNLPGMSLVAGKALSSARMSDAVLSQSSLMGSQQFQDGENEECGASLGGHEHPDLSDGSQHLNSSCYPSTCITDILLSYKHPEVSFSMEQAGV

Chain of Serine/threonine-protein kinase SIK1 (P57059 whole entry): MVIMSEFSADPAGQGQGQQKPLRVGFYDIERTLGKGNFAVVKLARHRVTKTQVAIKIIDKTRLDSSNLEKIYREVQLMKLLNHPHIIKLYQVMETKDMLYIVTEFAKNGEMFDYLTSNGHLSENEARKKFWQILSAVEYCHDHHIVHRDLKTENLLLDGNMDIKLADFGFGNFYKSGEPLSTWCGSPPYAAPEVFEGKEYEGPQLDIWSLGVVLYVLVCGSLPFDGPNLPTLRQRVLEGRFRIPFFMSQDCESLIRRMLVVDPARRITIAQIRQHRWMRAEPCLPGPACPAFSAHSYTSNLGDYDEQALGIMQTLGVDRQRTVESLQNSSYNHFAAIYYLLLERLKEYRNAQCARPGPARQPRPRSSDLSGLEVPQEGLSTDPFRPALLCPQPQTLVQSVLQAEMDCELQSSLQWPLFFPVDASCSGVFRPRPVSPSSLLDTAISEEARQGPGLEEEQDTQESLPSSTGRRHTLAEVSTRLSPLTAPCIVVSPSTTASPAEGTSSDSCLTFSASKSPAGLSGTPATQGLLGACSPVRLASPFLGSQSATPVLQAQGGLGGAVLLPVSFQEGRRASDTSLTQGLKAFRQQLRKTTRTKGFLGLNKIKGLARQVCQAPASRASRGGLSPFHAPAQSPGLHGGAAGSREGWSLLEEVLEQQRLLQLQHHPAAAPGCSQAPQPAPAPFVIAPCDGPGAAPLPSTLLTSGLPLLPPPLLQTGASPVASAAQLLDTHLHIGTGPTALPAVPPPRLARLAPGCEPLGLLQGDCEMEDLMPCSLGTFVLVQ
Chain of Serine/threonine-protein kinase SIK2 (Q9H0K1 whole entry): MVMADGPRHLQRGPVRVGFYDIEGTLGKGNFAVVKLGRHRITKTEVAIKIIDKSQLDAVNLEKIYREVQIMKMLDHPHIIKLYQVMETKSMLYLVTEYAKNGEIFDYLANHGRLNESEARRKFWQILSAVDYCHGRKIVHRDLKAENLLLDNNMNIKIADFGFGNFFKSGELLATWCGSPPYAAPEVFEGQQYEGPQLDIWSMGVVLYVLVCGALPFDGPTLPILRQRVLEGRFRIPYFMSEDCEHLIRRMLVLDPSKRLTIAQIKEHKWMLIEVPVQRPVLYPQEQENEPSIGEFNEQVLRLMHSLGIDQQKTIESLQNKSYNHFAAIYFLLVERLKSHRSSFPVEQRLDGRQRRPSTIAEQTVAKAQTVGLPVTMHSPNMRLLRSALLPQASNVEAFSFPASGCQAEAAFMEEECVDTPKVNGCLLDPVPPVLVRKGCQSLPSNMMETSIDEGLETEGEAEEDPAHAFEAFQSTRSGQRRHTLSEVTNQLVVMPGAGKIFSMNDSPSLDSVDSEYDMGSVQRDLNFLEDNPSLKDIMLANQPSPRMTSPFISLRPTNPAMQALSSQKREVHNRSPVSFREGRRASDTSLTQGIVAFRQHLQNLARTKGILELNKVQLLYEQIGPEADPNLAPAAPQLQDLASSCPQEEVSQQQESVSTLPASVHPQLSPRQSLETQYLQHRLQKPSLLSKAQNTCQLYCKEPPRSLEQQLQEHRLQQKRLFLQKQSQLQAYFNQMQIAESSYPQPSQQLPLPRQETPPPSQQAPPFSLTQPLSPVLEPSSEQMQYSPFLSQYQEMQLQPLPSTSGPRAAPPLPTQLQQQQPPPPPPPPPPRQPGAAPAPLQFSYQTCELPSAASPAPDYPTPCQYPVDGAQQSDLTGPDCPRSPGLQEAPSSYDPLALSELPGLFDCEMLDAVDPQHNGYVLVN

As for `CC(=O)c1ccc(-n2cnc3cc(N(C)c4ccc(C)nn4)ncc32)nc1-n1nc(C#N)cc1C` [US20250115607, Example 5], the negative-log IC50 (pIC50) (in general, −log10 of the IC50, conventionally taken in molar units) in test [1] is 4.72; in test [2] it was 6.16; in test [3] it was 5.69.
